# According to article PMC9243654 (Frontiers in Nutrition, 2022):
# Read-outs that look alike come from different tables or passages of the source.
# Assays:
# [1] = therapeutic drug for comparison; ref [70]; cited from earlier work
# [2] = ref PubChem database, cited from earlier work
# in vitro = settings: for PAMPA-BBB log Pe (cm s−1): pH 7.4
# Experimental: The PAMPA-BBB assay was conducted according to the methodology followed by Di et al., with some modifications as described below ([15]). First, the BBB solution was prepared by dissolving 8 mg of PBL and 4 mg of cholesterol in 600 μl of n-dodecane. The initial donor solution was prepared by mixing 1 ml of extract (10 mg ml^−1 in EtOH) with 1 ml of buffer (PBS, pH = 7.4, 10 mM). The filter membrane of the donor plate was carefully coated with 5 μl of BBB solution. The acceptor plate was filled with 350 μl of buffer, and the donor plate was carefully assembled over the acceptor plate like a “sandwich.” Finally, the donor plate was filled with 350 μl of donor solution, covered, and incubated for 4 h at 37°C in the dark. After incubation time, 300 μl of the solution was taken from both plates, transferred to separate vials, and dried in the SpeedVac system at 40°C and 13 mbar pressure. Dried acceptor and donor solution were dissolved in 50 μl of pure EtOH before subjecting to UHPLC-Q-TOF-MS analysis. Permeability across in vitro BBB of the bioactive compound was measured according to Equation (1) ([25]), with some modifications in concentration rates.
# (1) Pe=-ln[1-CA(t)/Ce]/A^*(1/VD+1/VA)^*t
# Cequilibrium was calculated according to the following equation ([2]):
# (2) Cequilibrium=[CD(t)*VD+CA(t)*VA]/(VD+VA)
# [3] = compounds identified in LPLE extract
# [4] = compound within LPLE (Nothofagus pumilio, lenga PLE extract), classes based on Könczöl et al.
# [5] = compounds of RSFE extract, octanol-water partition coefficient
# [6] = PAMPA, pH 7.4, PAMPA-BBB log Pe (cm s−1)
# [7] = PAMPA, pH 7.4, PAMPA-BBB log Pe, compound within LPLE (Nothofagus pumilio, lenga PLE extract), N.D = not detected in acceptor
# [8] = compound within LPLE (Nothofagus pumilio, lenga PLE extract), N.D = not detected in acceptor
molecule,measurement,setting,value
"COc1ccc2c3c1O[C@H]1C[C@@H](O)C=C[C@@]31CCN(C)C2 [galantamine, reference compound]",logPe (cm s^−1),[1],–5.35 ± 0.02 cm s^−1
COc1ccc([C@@H]2CC(=O)c3c(O)cc(O[C@@H]4O[C@H](CO[C@@H]5O[C@@H](C)[C@H](O)[C@@H](O)[C@H]5O)[C@@H](O)[C@H](O)[C@H]4O)cc3O2)cc1O [Hesperidin],Log P,[2]; [3],−1.1
same,Log P,[2]; compounds of ASFE extract,−1.1
same,Cross BBB potential,in vitro; compound within ASFE extract,-
same,Cross BBB potential,in vitro; [4],-
CC(C)=CCc1cc(/C=C/C(=O)O)cc(CC=C(C)C)c1O [Artepillin C],Log P,[2]; [5],5.4
same,Cross BBB potential,in vitro; PAMPA,+++
same,PAMPA-BBB log Pe (cm s−1),"in vitro; PAMPA, 4 h",−4.42 cm s−1
CC(=O)O[C@H]1C[C@@H](O)[C@]2(C=O)[C@H]3CC[C@]4(C)[C@@H](c5ccc(=O)oc5)CC[C@]4(O)[C@@H]3CC[C@]2(O)C1 [Bersaldegenin-3-acetate],Log P,[2]; compounds of KD extract,1.3
same,Cross BBB potential,in vitro; compound within KD extract,-
COc1cc(/C=C/C(=O)OC(C(=O)O)C(O)C(=O)O)ccc1O (centres unmarked) [Fertaric acid],Log P,[2]; [3],0.4
same,Log P,[2]; compounds of ASFE extract,0.4
same,Cross BBB potential,in vitro; compound within ASFE extract,-
same,Cross BBB potential,in vitro; [4],-
C[C@H]1[C@H](C)CC[C@]2(C(=O)O)CC[C@]3(C)C(=CC[C@@H]4[C@@]5(C)C[C@@H](O)[C@H](O)C(C)(C)[C@@H]5CC[C@]43C)[C@H]12 [Corosolic acid],Log P,[2]; [3],6.4
same,Cross BBB potential,in vitro; PAMPA,++
same,Papp at 4 h,in vitro; [6],6.03 ×10⁻⁶ cm/s
same,Papp at 4 h,in vitro; [7],8.51 ×10⁻⁶ cm/s
COc1c(O)cc2oc(-c3ccc(O)c(O)c3)c(O)c(=O)c2c1O [Patuletin],Log P,[2]; compounds of KD extract,2.1
same,Cross BBB potential,in vitro; compound within KD extract,-
CC(=O)O[C@H]1C[C@H](C)O[C@@H](O[C@H]2CC[C@]3(C=O)[C@H]4[C@H](O)C(=O)[C@]5(C)[C@@H](c6ccc(=O)oc6)CC[C@]5(O)[C@@H]4CC[C@]3(O)C2)[C@H]1O [Kalantuboside A],Log P,[2]; compounds of KD extract,7.5
same,Cross BBB potential,in vitro; compound within KD extract,-
Caffeoylshikimic acid,Log P,[2]; compounds of T33 extract,0.9
same,Cross BBB potential,in vitro; PAMPA,++
same,PAMPA-BBB log Pe (cm s−1),"in vitro; PAMPA, 4 h",−5.46 cm s−1
Resibufagin,Log P,[2]; compounds of KD extract,2.4
same,Cross BBB potential,in vitro; compound within KD extract,-
O=c1ccc2cc(O[C@@H]3O[C@H](CO)[C@@H](O)[C@H](O)[C@H]3O)c(O)cc2o1 [Esculin],Log P,[2]; [5],−0.6
same,Cross BBB potential,in vitro; PAMPA,+++ (key: -: not detected in acceptor; +: log Pe > −6.5; ++: log Pe > −5.5; +++: log Pe > −4.5)
same,Papp,in vitro; [6],50.1 ×10⁻⁶ cm/s
C[C@H]1O[C@H](O[C@H]2CC[C@]3(C=O)[C@H]4CC[C@]5(C)[C@@H](c6ccc(=O)oc6)CC[C@]5(O)[C@@H]4CC[C@]3(O)C2)[C@H](O)[C@@H](O)[C@@H]1O [Kalanchoside A],Log P,[2]; compounds of KD extract,−0.1
same,Cross BBB potential,in vitro; compound within KD extract,-
O=C(/C=C/c1ccc(O)c(O)c1)c1ccc(O)cc1O [Butein],Log P,[2]; [3],2.8
same,Log P,[2]; compounds of ASFE extract,2.8
same,Papp at 4 h,"in vitro; PAMPA, pH 7.4, PAMPA-BBB log Pe (cm s−1), compound within ASFE extract, 4 h, 37°C, PBS pH 7.4",2.19 ×10⁻⁶ cm/s
same,Papp at 4 h,in vitro; [7],16.6 ×10⁻⁶ cm/s
same,Cross BBB potential,in vitro; compound within ASFE extract,+ (log Pe > −6.5)
same,Cross BBB potential,in vitro; [4],++ (log Pe > −5.5)
CC(C)c1cc2c(c(O)c1O)[C@@]13CCCC(C)(C)[C@@H]1[C@H](OC3=O)C2=O [Galdosol],Log P,[2]; [5],4
same,Cross BBB potential,in vitro; PAMPA,+++
same,PAMPA-BBB log Pe (cm s−1),"in vitro; PAMPA, 4 h",−4.41 cm s−1
CC(C)c1cc2c(cc1O)[C@@]1(C)CCCC(C)(C)[C@@H]1CC2=O [Sugiol],Log P,[2]; [5],5.6
same,Cross BBB potential,in vitro; PAMPA,++
same,Papp at 4 h,in vitro; [6],4.57 ×10⁻⁶ cm/s
O.Oc1cc(O)c2c(c1)O[C@H](c1ccc(O)c(O)c1)[C@@H](O)C2 [Catechin],Log P,[2]; [3],0.4
same,Log P,[2]; compounds of ASFE extract,0.4
same,Cross BBB potential,in vitro; PAMPA,-
"O=c1c(O)c(-c2ccc(O)c(O)c2)oc2cc(O)cc(O)c12 [Quercetin, reference compound]",Log P,[2]; [3],1.5
same,Log P,[2]; compounds of ASFE extract,1.5
same,Log P,[2]; compounds of KD extract,1.5
same,Papp at 4 h,"in vitro; PAMPA, pH 7.4, LogPe, permeability of BBB to quercetin, present study",0.0955 ×10⁻⁶ cm/s
same,Papp at 4 h,in vitro; [7],0.0245 ×10⁻⁶ cm/s
Notohamosine B,Log P,[2]; [5],5.6
same,Cross BBB potential,in vitro; PAMPA,++
same,PAMPA-BBB log Pe (cm s−1),"in vitro; PAMPA, 4 h",−4.62 cm s−1
C[C@@H]1C(=O)C[C@@H](C(C)(C)O)O[C@@H]2C[C@@]3(C)[C@@H]4CC=C5[C@@H](C=C(O)C(=O)C5(C)C)[C@]4(C)C(=O)C[C@]3(C)[C@@H]12 [Cucurbitacin S],Log P,[2]; [3],3.2
same,Log P,[2]; compounds of ASFE extract,3.2
same,Cross BBB potential,in vitro; [4],-
C=C1CC[C@]2(C(=O)O)CC[C@]3(C)C(=CC[C@@H]4[C@@]5(C)CC[C@H](O)C(C)(C)[C@@H]5CC[C@]43C)[C@@H]2[C@H]1C [Micromeric acid],Log P,[2]; [5],6.5
same,Cross BBB potential,in vitro; compound within RSFE extract,-
O=C(O)c1ccc(O)c(O)c1 [Protocatechuic acid],Log P,[2]; [3],1.1
same,Log P,[2]; compounds of ASFE extract,1.1
same,Log P,[2]; compounds of KD extract,1.1
same,Cross BBB potential,in vitro; PAMPA,+++
same,PAMPA-BBB log Pe (cm s−1),"in vitro; PAMPA, 4 h",−3.92 cm s−1
same,Papp at 4 h,in vitro; [6],148 ×10⁻⁶ cm/s
same,Papp at 4 h,"in vitro; PAMPA, pH 7.4, PAMPA-BBB log Pe (cm s−1), compound within KD extract, 4 h, 37°C, PBS pH 7.4",105 ×10⁻⁶ cm/s
same,Papp at 4 h,in vitro; [7],138 ×10⁻⁶ cm/s
"CCC(O)C1CC(C)C2(CC(=O)C3(C)C4=C(CCC32C)C2(C)CCC(=O)C(C)(CO)C2CC4)O1 [Triterpene*, (23S,24S)-17,23-Epoxy-24,29-dihydroxy-27-norlanost-8-ene-3,15-dione]",Log P,[2]; [3],3.6
same,Log P,[2]; compounds of ASFE extract,3.6
same,Cross BBB potential,in vitro; PAMPA,++
same,PAMPA-BBB log Pe (cm s−1),"in vitro; PAMPA, 4 h",−4.97 cm s−1
same,PAMPA-BBB log Pe,in vitro; [8],−5.05 cm s−1
Methydihydrojasmonic acid,Log P,[2]; [5],1.6
same,Cross BBB potential,in vitro; PAMPA,+++
same,PAMPA-BBB log Pe (cm s−1),"in vitro; PAMPA, 4 h",−3.96 cm s−1
O=C(/C=C/c1ccc(O)c(O)c1)O[C@@H](C(=O)O)[C@@H](O)C(=O)O [Caftaric acid],Log P,[2]; compounds of ASFE extract,0.1
same,Cross BBB potential,in vitro; PAMPA,-
COc1cc(/C=C/C=O)ccc1O [Coniferaldehyde],Log P,[2]; [3],1.5
same,Log P,[2]; compounds of ASFE extract,1.5
same,PAMPA-BBB log Pe (cm s−1),in vitro; PAMPA,−4.24 cm s−1
same,PAMPA-BBB log Pe,in vitro; [8],−4.65 cm s−1
O=C(O)c1cc(O)c(O)c(Oc2c(O)c(=O)c3oc(O)c4cc(O)c(=O)c5oc(O)c2c3c45)c1 [Sanguisorbic acid dilactone],Log P,[2]; [3],−0.4
same,Log P,[2]; compounds of ASFE extract,−0.4
same,Cross BBB potential,in vitro; [4],-
O=C1c2c(O)cc(O)cc2O[C@H](c2ccc(O)cc2)[C@H]1O [Aromadendrin],Log P,[2]; [3],1.8
same,Log P,[2]; compounds of ASFE extract,1.8
same,Cross BBB potential,in vitro; compound within ASFE extract,-
same,Cross BBB potential,in vitro; [4],-
COc1c(O[C@@H]2O[C@H](CO)[C@@H](O)[C@H](O)[C@H]2O)cc2oc(-c3ccc(O)cc3)cc(=O)c2c1O [Homoplantaginin],Log P,[2]; [5],0.8
same,Cross BBB potential,in vitro; PAMPA,+++
same,PAMPA-BBB log Pe (cm s−1),"in vitro; PAMPA, 4 h",−4.24 cm s−1
CC1(C)C[C@@H]2C3=CC[C@@H]4[C@@]5(C)CC[C@H](O)[C@@](C)(C=O)C5CC[C@@]4(C)[C@]3(C)CC[C@@]2(C(=O)O)C[C@@H]1O (some centres unmarked) [Lucyin A],Log P,[2]; [3],5.3
same,Log P,[2]; compounds of ASFE extract,5.3
same,Cross BBB potential,in vitro; PAMPA,++
same,PAMPA-BBB log Pe,in vitro; [8],−4.74 cm s−1
COc1cc(C(=O)O)cc(OC)c1O [Syringic acid],Log P,[2]; [3],1.0
same,Log P,[2]; compounds of ASFE extract,1.0
same,Log P,[2]; compounds of KD extract,1.0
same,Log P,[2]; [5],1.0
same,Papp at 4 h,in vitro; [7],0.145 ×10⁻⁶ cm/s
same,Cross BBB potential,in vitro; compound within RSFE extract,-
COc1ccc([C@@H]2CC(=O)c3c(O)cc(O)cc3O2)cc1O [Hesperetin],Log P,[2]; [3],2.4
same,Papp at 4 h,"in vitro; PAMPA, pH 7.4, PAMPA-BBB log Pe",5.01 ×10⁻⁶ cm/s
